Assay results published in US20250186323A1, “COMPOSITION FOR SKIN WHITENING COMPRISING CARVEDILOL” (GMEX (GLOBAL MEDICAL XYNAPSE), priority 2020, published 2025).

Legend:
[1] = test system: MITF; assay: MITF mRNA expression in NHMs; format: cell-based, human
[2] = test system: tyrosinase; assay: Tyrosinase activity in NHMs; format: cell-based, human; settings: carvedilol 2-10 μM, 5 days (FIG. 1C)
Experimental: (§1) NHMs were treated with carvedilol at each concentration of 2 μM, 4 μM, 6 μM, 8 μM and 10 μM, cultured for 5 days, and then a cell growth rate, melanogenesis activity, tyrosinase activity, and the expression of a melanin synthesis-related protein were confirmed.

[3] = test system: normal human melanocytes (NHMs); assay: Cell growth rate in normal human melanocytes treated with carvedilol; format: cell-based; settings: cultured for 5 days (FIG. 1A)
Experimental: as §1

[4] = test system: cAMP/PKA/CREB signaling pathway; assay: Phospho-CREB and phospho-ERK expression in FSK-stimulated NHMs; format: cell-based, human; settings: over time (FIG. 1D)
Experimental: After NHMs were stimulated with FSK and treated with carvedilol, the expression levels of phospho-CREB and phospho-ERK were measured, and an intracellular signaling pathway which regulates MITF transcription was investigated.

[5] = test system: FSK-stimulated NHMs; assay: Melanin production in FSK-stimulated NHMs; format: cell-based, human; settings: NHMs after FSK treatment (FIG. 3A)
[6] = test system: ex-vivo model of human skin tissue; assay: Ex-vivo human skin tissue model stimulated by UV irradiation
Excerpt: To examine adaptation in actual clinical practice, an ex-vivo model of human skin tissue was stimulated by UV irradiation to induce melanin synthesis, and treated with carvedilol and cultured, and then a fragment was formed and subjected to Fontana-Masson staining.

[7] = test system: normal human melanocytes (NHMs); assay: Melanin production (melanogenesis activity) in NHMs; format: cell-based; settings: carvedilol 2-10 μM, 5 days (FIG. 1B)
Experimental: as §1

[8] = test system: melanin synthesis-related protein; assay: Expression of melanin synthesis-related protein in NHMs; format: cell-based, human; settings: according to carvedilol treatment time (FIG. 1D)
Excerpt: […], and then a cell growth rate, melanogenesis activity, tyrosinase activity, and the expression of a melanin synthesis-related protein were confirmed.

[9] = test system: mouse melanocytes (mel-ab); assay: Melanin production in mouse melanocytes (mel-ab); format: cell-based; settings: carvedilol by concentration (FIG. 2B)
Excerpt: (§2) In addition to the result of Example 1 showing whitening activity in NHMs, the melanin inhibitory effect was confirmed by treating mouse melanocytes (mel-ab) with carvedilol.

[10] = test system: mouse melanocytes (mel-ab); assay: Cell growth rate in mouse melanocytes (mel-ab); format: cell-based; settings: up to 8 μM carvedilol (FIG. 2A)
Excerpt: as §2

| tyrosinase activity [2] | melanin synthesis-related enzymes such as tyrosinase, TRP1 and DCT ([6]; UV-irradiated ex-vivo human skin, increased by UVR (FIG. 4C)) | SMILES | MITF transcription ([1]; 10 μM FSK for 2 hours (FIG. 3B)) | cell growth rate ([3]; 10 μM carvedilol) | cell growth rate ([3]; up to 8 μM carvedilol) | phospho-CREB expression [4] | phospho-ERK expression [4] | melanin production [5] | melanosome level (Fontana-Masson staining) ([6]; UV-irradiated ex-vivo human skin, carvedilol treated (FIG. 4A)) | melanin index (proportion of Fontana-Masson-stained region) ([6]; UV-irradiated ex-vivo human skin, carvedilol treated (FIG. 4B)) | number of Melan-A (+) cells (melanocytes) ([6]; ex-vivo human skin, compared to UVR alone (FIG. 4D)) | HMB45(+) melanocytes indicating melanocyte activity ([6]; ex-vivo human skin, increased by UVR treatment (FIG. 4E)) | melanin production [7] | mRNA level of MITF ([1]; two hours after carvedilol treatment (FIG. 3C)) | expression of a melanin synthesis-related protein [8] | melanin production [9] | cell growth rate [10] |
| --- | --- | --- | --- | --- | --- | --- | --- | --- | --- | --- | --- | --- | --- | --- | --- | --- | --- |
|  |  | C=C[C@@]1(C)CC(=O)[C@]2(O)[C@@]3(C)[C@@H](O)CCC(C)(C)[C@@H]3[C@H](O)[C@H](OC(C)=O)[C@@]2(C)O1 [FSK] | maximally increased |  |  |  |  |  |  |  |  |  |  |  |  |  |  |
| inhibited | reduced | COc1ccccc1OCCNCC(O)COc1cccc2[nH]c3ccccc3c12 (centres unmarked) [carvedilol] |  | slightly reduced | no effect | reduced over time | no change | inhibits melanin production | melanosome reduction | decrease | does not affect | reduced | inhibited | maximally decreased | tends to decrease over time | effect of inhibiting melanin production | no effect |
